What was measured:
[1] = target: Epidermal growth factor receptor (Homo sapiens, UniProt P00533); assay: Inhibition of human EGFR using biotin-aminohexyl-AEEEEYFELVAKKK as substrate preincubated for 15 mins followed by substrate/ATP addition measured after 20 mins by FRET assay
[2] = target: Son of sevenless homolog 2 (Homo sapiens, UniProt Q07890); assay: Inhibition of N-terminal His10-tagged wild-type recombinant human SOS2 catalytic domain (564 to 1043 residues) expressed in Escherichia coli assessed as reduction in KRAS G12C mutant activation preincubated for 10 mins with KRAS followed by SOS2 addition measured after 30 mins in presence of EDA-GTP-DY-647P1 by HTRF analysis
Sequence of Son of sevenless homolog 2 (Q07890 whole entry, looked up, stated change not applied, the tested form may be a part): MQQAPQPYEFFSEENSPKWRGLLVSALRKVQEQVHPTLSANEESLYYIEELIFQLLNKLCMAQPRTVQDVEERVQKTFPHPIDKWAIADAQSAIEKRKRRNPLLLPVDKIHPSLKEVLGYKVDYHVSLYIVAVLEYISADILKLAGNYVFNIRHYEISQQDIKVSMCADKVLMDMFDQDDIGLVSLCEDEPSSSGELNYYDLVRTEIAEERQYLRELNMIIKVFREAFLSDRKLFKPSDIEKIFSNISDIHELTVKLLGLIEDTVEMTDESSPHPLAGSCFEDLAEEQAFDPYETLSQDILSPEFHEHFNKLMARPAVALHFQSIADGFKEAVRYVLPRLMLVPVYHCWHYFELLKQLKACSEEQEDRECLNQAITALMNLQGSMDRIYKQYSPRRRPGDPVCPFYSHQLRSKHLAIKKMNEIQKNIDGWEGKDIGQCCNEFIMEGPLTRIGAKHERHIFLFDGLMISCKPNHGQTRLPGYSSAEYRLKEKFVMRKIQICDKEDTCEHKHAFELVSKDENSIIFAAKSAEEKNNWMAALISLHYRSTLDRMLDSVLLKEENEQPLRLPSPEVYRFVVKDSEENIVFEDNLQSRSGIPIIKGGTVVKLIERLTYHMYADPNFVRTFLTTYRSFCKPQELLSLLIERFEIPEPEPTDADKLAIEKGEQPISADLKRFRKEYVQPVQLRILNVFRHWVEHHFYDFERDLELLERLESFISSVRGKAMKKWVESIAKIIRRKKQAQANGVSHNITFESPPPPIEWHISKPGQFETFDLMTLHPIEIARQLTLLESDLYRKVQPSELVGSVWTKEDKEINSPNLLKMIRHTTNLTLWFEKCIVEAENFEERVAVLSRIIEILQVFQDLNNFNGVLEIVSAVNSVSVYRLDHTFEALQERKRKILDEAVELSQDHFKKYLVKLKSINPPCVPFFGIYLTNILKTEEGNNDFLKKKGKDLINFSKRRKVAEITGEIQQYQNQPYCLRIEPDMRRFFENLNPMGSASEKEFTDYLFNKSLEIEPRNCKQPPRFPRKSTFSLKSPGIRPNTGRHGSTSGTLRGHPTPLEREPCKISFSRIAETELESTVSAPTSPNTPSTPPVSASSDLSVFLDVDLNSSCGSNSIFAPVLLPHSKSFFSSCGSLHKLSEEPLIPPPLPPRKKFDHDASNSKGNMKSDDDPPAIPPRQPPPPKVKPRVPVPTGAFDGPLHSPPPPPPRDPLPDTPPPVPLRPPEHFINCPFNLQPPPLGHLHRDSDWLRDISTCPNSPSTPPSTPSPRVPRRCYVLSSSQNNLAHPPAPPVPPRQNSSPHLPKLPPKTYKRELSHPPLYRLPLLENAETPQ

[3] = target: T1, Guanine nucleotide exchange factor DBS (Homo sapiens, UniProt O15068); assay: Inhibition of human DBS assessed as reduction in CDC42 activation preincubated for 1 min with CDC42 followed by DBS addition measured after 20 mins in presence of EDA-GTP-DY-647P1 by HTRF analysis
T1 sequence (O15068 whole entry): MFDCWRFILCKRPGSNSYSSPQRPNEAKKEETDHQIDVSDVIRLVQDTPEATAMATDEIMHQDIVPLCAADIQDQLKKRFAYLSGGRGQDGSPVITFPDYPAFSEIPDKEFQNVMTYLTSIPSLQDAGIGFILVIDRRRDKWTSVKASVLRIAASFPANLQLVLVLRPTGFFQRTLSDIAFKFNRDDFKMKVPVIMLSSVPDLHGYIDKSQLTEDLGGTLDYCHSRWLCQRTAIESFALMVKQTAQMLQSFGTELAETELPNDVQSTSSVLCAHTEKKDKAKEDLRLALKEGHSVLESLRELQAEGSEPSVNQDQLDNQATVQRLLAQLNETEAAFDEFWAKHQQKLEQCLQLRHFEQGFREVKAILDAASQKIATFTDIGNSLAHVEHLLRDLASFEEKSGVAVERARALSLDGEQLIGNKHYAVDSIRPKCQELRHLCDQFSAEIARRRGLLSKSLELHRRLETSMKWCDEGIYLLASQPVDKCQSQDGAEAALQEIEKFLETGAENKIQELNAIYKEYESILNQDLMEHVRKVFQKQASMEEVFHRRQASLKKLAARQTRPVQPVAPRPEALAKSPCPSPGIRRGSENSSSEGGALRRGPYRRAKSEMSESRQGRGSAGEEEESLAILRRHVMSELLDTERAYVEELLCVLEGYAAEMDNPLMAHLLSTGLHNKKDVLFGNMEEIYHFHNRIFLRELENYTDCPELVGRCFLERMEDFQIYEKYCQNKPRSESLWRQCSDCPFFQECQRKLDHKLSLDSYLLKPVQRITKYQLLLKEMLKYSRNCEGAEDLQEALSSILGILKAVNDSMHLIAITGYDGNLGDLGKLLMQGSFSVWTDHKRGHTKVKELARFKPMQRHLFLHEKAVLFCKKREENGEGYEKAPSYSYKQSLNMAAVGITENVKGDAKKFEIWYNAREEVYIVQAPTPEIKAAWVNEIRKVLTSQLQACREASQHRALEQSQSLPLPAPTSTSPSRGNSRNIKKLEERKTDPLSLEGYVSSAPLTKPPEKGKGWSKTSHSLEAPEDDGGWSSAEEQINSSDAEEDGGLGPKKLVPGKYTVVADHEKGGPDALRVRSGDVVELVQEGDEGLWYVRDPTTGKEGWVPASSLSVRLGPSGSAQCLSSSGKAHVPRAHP

MOLM-13 = assay: Antiproliferative activity against human MOLM-13 cells assessed as inhibition of cell viability incubated for 72 hrs by Cell Titer Glo assay; assay type: functional, cell-based; conditions: MOLM-13, 72 h
[4] = target: T2, Serine/threonine-protein kinase D3 (Homo sapiens) (UniProt O94806); assay: Inhibition of PRKD3 (unknown origin) assessed as residual activity at 1000 nM by KINOMEscan analysis relative to control
T2 sequence (whole entry): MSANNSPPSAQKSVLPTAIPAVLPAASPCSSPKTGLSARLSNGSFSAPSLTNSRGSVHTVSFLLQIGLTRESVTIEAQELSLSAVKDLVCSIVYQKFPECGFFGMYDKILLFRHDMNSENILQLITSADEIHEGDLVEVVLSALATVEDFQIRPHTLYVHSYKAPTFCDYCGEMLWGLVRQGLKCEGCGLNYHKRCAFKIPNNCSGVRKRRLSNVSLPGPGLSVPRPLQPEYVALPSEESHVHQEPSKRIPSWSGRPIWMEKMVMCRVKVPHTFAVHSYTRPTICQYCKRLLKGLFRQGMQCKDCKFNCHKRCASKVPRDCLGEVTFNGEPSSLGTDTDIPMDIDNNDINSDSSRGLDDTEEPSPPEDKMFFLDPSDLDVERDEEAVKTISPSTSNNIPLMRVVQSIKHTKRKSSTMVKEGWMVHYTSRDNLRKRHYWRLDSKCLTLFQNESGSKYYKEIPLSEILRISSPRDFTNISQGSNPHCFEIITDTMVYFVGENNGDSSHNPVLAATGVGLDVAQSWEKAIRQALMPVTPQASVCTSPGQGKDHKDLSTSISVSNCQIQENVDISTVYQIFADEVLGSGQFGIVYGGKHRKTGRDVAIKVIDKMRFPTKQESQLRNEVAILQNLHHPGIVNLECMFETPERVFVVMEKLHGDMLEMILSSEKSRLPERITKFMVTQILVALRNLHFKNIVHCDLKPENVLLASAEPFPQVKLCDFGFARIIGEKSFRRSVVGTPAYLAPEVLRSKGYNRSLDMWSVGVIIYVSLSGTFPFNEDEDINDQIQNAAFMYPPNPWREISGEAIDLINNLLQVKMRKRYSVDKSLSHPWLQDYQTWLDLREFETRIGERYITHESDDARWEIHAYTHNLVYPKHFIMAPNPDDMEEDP

[5] = target: T3, Protein kinase C iota type (Homo sapiens) (UniProt P41743); assay: Inhibition of PRKCI (unknown origin) assessed as residual activity at 1000 nM by KINOMEscan analysis relative to control
T3 sequence (whole entry): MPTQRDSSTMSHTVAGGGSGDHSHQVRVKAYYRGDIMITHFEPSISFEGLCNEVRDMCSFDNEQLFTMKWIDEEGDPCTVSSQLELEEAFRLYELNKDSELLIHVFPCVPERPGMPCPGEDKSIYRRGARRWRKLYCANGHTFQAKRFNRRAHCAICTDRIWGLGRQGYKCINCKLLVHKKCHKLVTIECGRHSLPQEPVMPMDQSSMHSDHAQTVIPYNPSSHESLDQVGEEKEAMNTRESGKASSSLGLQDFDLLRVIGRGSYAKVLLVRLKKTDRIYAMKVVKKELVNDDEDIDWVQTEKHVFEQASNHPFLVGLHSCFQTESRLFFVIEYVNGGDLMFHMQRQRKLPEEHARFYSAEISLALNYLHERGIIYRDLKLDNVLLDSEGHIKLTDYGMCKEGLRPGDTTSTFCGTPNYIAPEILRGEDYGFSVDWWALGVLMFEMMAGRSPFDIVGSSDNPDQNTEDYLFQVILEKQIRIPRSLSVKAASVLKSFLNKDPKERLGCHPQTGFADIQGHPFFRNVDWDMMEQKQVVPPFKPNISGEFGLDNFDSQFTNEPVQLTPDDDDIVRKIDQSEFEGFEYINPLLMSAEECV

Sequence of Epidermal growth factor receptor (P00533 whole entry, the tested form may be a part): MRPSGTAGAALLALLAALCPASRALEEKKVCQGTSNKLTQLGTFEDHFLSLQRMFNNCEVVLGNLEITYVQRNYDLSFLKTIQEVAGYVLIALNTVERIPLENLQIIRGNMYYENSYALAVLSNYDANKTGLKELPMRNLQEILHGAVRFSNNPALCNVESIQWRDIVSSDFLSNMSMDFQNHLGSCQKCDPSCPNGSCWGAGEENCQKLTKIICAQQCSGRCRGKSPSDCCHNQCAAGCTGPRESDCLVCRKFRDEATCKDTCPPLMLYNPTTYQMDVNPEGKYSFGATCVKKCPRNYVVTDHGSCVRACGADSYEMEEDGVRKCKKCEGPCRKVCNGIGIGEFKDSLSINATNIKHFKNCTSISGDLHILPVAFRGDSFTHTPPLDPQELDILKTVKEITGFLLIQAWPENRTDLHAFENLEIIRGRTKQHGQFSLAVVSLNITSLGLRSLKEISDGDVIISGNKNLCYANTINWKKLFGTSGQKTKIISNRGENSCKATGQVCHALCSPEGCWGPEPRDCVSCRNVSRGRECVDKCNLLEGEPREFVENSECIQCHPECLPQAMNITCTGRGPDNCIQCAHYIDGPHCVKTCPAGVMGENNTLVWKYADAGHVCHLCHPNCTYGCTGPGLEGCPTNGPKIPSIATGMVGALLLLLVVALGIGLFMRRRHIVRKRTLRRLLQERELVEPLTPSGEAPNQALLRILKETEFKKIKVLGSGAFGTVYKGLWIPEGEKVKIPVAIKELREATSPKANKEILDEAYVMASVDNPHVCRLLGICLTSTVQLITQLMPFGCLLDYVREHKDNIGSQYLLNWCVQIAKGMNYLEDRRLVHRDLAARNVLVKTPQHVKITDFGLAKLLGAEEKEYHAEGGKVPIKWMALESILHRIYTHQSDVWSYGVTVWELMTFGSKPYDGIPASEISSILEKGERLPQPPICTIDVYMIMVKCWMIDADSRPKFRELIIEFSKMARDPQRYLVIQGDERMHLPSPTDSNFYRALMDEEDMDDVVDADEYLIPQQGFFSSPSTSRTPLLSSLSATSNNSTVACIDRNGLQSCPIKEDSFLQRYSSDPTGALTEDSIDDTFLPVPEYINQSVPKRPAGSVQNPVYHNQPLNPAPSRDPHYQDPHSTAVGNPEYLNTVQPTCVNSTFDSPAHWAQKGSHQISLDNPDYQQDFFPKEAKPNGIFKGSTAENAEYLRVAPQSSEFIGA

SMILES	IC50 [1] [µM]	IC50 [2] [µM]	IC50 [3] [µM]	IC50 (MOLM-13) [µM]	Activity [4] [%]	Activity [5] [%]
CNCc1ccccc1-c1csc([C@@H](C)Nc2nc(C)nc3cc(OC)c(OC)cc23)c1 [BAY-293]	> 20	> 20	> 20	0.995		
COc1cc2nc(C)nc(N[C@H](C)c3cccc(-c4cn[nH]c4)c3)c2cc1OC	> 20	> 20	> 20	3.54	100	61
COc1cc2ncnc(N[C@H](C)c3cccc4ccccc34)c2cc1OC	0.58	> 20	> 20	2.53	100	100
